Experimental data published in ChEMBL document CHEMBL5465560, “Selectivity Literature for EUbOPEN Chemogenomic Library” (2024).

Tests used:
[1] = biological target: Histone-lysine N-methyltransferase KMT5C (Homo sapiens) (UniProt Q86Y97); settings: at 10 µM
[2] = biological target: Tyrosine-protein kinase receptor Tie-1 (Homo sapiens) (UniProt P35590); test: Selectivity interaction (KinomeScan (DiscoverX)) EUB0000229b TIE1; settings: at 10 µM
[3] = biological target: T1, Serine/threonine-protein kinase MAK (Homo sapiens) (UniProt P20794); test: Selectivity interaction (KinomeScan (DiscoverX)) EUB0000229b MAK; settings: at 10 µM
T1 sequence (whole entry): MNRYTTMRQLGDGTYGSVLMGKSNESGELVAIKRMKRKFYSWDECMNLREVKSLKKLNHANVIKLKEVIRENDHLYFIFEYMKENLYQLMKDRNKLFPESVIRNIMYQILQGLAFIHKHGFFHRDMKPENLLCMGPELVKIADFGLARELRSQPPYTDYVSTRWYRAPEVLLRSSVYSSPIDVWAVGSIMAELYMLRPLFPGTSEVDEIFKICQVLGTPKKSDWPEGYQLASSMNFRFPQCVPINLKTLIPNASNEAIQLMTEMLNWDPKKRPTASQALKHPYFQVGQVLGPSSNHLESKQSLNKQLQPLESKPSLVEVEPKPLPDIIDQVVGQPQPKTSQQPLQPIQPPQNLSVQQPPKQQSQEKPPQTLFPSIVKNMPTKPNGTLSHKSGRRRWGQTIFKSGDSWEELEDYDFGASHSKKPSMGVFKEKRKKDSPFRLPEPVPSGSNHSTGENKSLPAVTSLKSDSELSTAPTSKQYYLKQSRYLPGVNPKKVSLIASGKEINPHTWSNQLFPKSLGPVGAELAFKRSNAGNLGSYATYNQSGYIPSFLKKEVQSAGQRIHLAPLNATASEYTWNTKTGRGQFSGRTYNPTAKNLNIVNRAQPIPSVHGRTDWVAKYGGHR

[4] = biological target: MAP kinase-interacting serine/threonine-protein kinase 2 (Homo sapiens, UniProt Q9HBH9); test: Selectivity interaction (Kinase panel (33PanQinase(R) Activity Assay)) EUB0000877a MKNK2
Chain of MAP kinase-interacting serine/threonine-protein kinase 2 (Q9HBH9 whole entry): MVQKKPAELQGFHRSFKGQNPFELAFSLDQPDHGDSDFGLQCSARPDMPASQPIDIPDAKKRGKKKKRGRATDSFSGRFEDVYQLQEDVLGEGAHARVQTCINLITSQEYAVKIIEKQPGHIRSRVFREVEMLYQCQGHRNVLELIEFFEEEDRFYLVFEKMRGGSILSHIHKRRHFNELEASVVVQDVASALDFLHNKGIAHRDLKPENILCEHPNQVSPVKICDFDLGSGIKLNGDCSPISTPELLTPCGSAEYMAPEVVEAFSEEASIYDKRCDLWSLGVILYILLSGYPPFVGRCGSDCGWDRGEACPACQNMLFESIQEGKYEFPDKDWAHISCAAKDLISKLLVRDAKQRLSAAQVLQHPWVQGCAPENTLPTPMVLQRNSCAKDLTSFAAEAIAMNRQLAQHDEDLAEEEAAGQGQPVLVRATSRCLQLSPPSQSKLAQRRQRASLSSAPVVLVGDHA

[5] = biological target: Serine/threonine-protein kinase 16 (Homo sapiens, UniProt O75716); settings: at 10 µM
[6] = biological target: Casein kinase I isoform alpha (Homo sapiens, UniProt P48729); test: Selectivity interaction (ActivX KiNativ screen (kinase selectivity in THP-1 cell lysates)) EUB0000639a CSNK1A1; format: subcellular; settings: lysate, at 0.2 µM
[7] = biological target: Tyrosine-protein kinase JAK1 (Homo sapiens, UniProt P23458); test: Selectivity interaction (Kinase panel (Invitrogen)) EUB0000639a JAK1; settings: at 200 nM
Chain of Tyrosine-protein kinase JAK1 (P23458 whole entry): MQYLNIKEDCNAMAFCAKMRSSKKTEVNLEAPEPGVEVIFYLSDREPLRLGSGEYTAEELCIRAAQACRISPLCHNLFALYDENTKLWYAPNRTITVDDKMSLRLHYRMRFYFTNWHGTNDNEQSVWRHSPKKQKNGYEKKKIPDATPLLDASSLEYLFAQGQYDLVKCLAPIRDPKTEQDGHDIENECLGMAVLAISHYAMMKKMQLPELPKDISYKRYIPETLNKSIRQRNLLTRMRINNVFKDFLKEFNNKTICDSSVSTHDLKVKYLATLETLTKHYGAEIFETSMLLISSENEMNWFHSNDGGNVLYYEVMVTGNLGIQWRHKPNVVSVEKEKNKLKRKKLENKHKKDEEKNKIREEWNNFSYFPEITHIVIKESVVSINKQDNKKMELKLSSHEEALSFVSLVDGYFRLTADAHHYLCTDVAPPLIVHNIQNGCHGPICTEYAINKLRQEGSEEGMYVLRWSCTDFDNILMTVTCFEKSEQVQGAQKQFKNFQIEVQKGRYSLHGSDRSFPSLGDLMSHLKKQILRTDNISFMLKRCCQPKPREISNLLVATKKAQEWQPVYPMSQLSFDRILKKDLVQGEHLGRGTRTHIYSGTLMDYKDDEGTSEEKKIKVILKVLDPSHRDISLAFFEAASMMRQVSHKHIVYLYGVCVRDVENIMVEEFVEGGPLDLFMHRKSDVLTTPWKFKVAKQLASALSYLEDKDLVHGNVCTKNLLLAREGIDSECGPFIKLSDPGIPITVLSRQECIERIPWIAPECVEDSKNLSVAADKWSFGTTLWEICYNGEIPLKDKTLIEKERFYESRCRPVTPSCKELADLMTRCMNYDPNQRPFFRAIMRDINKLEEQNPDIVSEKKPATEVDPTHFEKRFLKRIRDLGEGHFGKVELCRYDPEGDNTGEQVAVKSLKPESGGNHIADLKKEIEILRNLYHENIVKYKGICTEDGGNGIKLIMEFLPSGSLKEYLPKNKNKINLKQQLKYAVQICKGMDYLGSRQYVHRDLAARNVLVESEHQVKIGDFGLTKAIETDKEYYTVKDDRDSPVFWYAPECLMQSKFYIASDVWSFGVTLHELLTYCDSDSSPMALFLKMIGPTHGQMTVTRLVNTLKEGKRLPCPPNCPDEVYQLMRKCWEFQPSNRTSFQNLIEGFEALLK

[8] = biological target: Protein kinase C theta type (Homo sapiens, UniProt Q04759); test: Selectivity interaction (Kinase panel (Invitrogen)) EUB0000639a PRKCQ; settings: at 200 nM
[9] = biological target: Tyrosine-protein kinase CSK (Homo sapiens) (UniProt P41240); test: Selectivity interaction (KinomeScan (DiscoverX)) EUB0000045b CSK
Chain of Tyrosine-protein kinase CSK (Homo sapiens) (P41240 2-450 limits assumed): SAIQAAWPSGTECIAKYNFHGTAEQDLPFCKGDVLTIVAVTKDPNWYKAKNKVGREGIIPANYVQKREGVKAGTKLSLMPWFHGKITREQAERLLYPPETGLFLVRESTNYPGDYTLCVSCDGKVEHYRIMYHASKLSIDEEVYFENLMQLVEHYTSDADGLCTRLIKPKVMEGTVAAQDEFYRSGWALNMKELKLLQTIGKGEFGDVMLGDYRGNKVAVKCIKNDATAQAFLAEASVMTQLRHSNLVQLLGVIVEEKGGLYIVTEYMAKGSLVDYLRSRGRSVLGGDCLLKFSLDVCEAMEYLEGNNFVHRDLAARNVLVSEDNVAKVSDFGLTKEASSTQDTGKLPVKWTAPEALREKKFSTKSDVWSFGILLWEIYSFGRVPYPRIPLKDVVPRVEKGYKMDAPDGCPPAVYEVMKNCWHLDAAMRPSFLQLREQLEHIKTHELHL

[10] = biological target: Serine/threonine-protein kinase MRCK gamma (Homo sapiens) (UniProt Q6DT37); test: Selectivity interaction (KinomeScan (DiscoverX)) EUB0000045b CDC42BPG
Chain of Serine/threonine-protein kinase MRCK gamma (Homo sapiens) (Q6DT37 whole entry): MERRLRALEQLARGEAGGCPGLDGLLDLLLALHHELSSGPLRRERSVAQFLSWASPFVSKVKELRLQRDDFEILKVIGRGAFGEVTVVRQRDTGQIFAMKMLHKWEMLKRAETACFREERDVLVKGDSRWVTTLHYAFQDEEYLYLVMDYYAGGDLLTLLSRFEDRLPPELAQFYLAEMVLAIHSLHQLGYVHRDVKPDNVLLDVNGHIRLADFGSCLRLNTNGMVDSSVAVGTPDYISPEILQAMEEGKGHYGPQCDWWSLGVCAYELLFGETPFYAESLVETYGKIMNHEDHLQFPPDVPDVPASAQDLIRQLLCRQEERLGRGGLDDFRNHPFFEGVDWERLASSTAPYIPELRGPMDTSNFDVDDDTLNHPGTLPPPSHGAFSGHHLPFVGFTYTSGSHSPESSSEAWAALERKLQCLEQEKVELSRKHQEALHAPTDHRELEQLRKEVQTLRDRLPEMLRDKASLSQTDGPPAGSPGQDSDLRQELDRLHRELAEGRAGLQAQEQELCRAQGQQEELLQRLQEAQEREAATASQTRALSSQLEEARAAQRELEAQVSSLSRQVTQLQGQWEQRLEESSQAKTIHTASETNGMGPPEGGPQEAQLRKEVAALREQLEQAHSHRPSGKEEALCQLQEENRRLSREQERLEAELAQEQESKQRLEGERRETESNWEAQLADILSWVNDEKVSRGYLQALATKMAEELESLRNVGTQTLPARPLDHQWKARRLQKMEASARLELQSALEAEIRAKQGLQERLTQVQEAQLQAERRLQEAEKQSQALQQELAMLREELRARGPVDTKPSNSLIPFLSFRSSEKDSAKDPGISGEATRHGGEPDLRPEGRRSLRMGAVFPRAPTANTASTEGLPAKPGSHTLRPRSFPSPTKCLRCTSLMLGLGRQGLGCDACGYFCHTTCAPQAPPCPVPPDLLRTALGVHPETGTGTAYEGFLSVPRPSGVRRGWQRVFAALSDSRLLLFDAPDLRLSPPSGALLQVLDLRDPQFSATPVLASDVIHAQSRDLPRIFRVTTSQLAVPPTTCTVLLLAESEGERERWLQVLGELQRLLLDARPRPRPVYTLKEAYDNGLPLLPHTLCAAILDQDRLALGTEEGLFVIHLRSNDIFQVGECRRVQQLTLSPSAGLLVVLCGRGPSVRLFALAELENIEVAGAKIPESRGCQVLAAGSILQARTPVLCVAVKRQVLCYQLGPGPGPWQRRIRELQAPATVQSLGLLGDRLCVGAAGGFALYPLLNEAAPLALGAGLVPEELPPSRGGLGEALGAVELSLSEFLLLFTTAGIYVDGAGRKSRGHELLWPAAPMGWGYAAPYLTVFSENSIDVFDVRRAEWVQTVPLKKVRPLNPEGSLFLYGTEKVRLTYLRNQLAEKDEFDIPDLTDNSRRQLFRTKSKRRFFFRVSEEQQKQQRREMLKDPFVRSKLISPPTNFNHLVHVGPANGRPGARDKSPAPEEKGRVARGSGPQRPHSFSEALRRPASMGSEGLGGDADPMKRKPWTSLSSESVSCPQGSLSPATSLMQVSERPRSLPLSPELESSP

[11] = biological target: Dual specificity protein kinase CLK3 (Homo sapiens, UniProt P49761); test: Selectivity interaction (KinomeScan (DiscoverX)) EUB0000045b CLK3
Chain of Dual specificity protein kinase CLK3 (P49761 whole entry, looked up): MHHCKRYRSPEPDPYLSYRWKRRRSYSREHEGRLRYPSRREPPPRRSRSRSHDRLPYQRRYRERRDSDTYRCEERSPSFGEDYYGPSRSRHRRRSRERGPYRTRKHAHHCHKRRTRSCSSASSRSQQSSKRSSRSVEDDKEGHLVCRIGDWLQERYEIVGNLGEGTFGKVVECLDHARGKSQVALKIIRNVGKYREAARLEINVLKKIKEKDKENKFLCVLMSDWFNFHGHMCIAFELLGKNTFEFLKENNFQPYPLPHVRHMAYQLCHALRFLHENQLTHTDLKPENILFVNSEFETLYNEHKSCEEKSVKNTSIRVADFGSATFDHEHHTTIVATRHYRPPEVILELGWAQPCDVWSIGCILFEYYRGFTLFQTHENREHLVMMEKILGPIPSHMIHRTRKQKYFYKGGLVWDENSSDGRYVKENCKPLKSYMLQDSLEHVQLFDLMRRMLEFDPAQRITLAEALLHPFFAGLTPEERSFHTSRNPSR

[12] = biological target: Serine/threonine-protein kinase SBK1 (Homo sapiens) (UniProt Q52WX2); test: Selectivity interaction (KinomeScan (DiscoverX)) EUB0000045b SBK1
Chain of Serine/threonine-protein kinase SBK1 (Homo sapiens) (Q52WX2 whole entry): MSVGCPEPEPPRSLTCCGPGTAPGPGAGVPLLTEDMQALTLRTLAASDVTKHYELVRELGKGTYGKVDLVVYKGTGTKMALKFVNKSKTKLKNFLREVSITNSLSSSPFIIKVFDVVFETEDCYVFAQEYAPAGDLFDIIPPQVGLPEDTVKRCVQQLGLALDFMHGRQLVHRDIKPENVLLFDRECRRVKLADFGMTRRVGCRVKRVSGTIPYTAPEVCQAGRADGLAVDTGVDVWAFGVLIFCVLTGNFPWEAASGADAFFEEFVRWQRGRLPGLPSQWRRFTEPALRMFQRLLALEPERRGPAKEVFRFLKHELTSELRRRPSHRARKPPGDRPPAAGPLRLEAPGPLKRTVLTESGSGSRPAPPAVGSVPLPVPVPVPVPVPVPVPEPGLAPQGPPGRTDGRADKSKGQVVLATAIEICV

[13] = biological target: Interferon-induced, double-stranded RNA-activated protein kinase (Homo sapiens) (UniProt P19525); test: Selectivity interaction (ActivX KiNativ screen (ex vivo kinase selectivity in human PBMCs)) EUB0001619a EIF2AK2; format: cell-based; settings: PBMC, at 1 µM
[14] = biological target: Protein kinase C eta type (Homo sapiens) (UniProt P24723); test: Selectivity interaction (KinomeScan (DiscoverX)) EUB0001619a PRKCH; settings: at 1 µM
[15] = biological target: Serine/threonine-protein kinase Nek4 (Homo sapiens) (UniProt P51957); test: Selectivity interaction (KinomeScan (DiscoverX)) EUB0001619a NEK4; settings: at 1 µM
[16] = biological target: Tyrosine-protein kinase JAK2 (Homo sapiens, UniProt O60674); test: Selectivity interaction (Upstate Kinase Profiler service (Millipore)) EUB0000056c JAK2; settings: at 1 µM
[17] = biological target: T2, Inhibitor of nuclear factor kappa-B kinase subunit beta (Homo sapiens) (UniProt O14920); test: Selectivity interaction (KinomeScan (DiscoverX)) EUB0000607a IKBKB; settings: at 10 µM
T2 sequence (whole entry): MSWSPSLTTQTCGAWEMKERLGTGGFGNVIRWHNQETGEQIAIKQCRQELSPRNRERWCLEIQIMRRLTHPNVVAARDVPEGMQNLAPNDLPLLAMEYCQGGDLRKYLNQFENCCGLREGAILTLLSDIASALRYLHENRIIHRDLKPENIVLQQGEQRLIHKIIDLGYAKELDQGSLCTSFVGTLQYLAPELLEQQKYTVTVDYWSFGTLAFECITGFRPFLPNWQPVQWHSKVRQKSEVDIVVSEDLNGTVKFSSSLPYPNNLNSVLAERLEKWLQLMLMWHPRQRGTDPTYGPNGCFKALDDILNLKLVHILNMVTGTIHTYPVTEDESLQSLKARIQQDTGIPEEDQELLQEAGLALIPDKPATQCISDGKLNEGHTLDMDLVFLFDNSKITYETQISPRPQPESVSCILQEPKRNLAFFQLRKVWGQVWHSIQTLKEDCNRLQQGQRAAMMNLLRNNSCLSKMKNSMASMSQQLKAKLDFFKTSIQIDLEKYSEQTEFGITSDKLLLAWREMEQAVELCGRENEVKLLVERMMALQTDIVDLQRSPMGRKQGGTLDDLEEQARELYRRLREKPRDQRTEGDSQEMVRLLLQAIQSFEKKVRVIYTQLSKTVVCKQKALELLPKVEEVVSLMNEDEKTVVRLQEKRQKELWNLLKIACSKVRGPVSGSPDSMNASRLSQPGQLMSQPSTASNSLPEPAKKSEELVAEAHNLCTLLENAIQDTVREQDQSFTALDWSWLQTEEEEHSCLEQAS

[18] = biological target: Cyclin-dependent kinase-like 1 (Homo sapiens) (UniProt Q00532); test: Selectivity interaction (KinomeScan (DiscoverX)) EUB0000607a CDKL1; settings: at 10 µM

Chain of Histone-lysine N-methyltransferase KMT5C (Homo sapiens) (Q86Y97 whole entry, looked up): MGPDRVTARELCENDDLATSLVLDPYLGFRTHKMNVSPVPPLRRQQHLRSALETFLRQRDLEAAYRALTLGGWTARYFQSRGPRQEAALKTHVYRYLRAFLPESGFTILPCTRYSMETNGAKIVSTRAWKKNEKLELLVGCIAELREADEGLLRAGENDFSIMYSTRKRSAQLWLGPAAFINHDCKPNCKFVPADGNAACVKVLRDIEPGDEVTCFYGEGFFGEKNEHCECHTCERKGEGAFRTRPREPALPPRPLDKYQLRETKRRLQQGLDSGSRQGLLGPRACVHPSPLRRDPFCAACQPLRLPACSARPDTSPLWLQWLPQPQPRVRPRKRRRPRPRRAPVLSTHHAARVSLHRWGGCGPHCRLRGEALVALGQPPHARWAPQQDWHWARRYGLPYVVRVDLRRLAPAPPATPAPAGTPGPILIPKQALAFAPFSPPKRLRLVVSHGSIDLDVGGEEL

## CNCCN1CCC(c2cc(CN(C)C(=O)c3cccc(Oc4ccccc4)c3)ccn2)CC1
[1]
  % activity: > 90%

## COc1cc(N(C)c2ccnc3ccc(C(F)(F)F)cc23)cc(OC)c1OC
[2]
  % binding: 75%
[3]
  % binding: 79%

## CCC(=O)N1CC[C@H](Nc2ncnc3c2CN(c2cnc(OC)c(C(F)(F)F)c2)CC3)C1 [LENIOLISIB]
[4]
  IC50: > 10 µM

## CCN(CC)CCCCNc1ncc2cc(-c3cc(OC)cc(OC)c3)c(NC(=O)NC(C)(C)C)nc2n1
[5]
  % of control: 100%

## CC[C@@H]1[C@H](F)C(=O)N[C@@H]1COc1nccc2cc(C(N)=O)c(OC)cc12 [ZIMLOVISERTIB]
[6]
  % of inhibition: -3.6%
[7]
  % of inhibition: -0.407%
[8]
  % of inhibition: 3.66%

## C=CC(=O)Nc1cc(-n2c(=O)ccc3cnc4ccc(-c5ccc(NS(C)(=O)=O)cc5)cc4c32)ccc1C
[9]; at 1 µM
  % of control: 99%
[9]; at 10 µM
  % of control: 75%
[10]; at 1 µM
  % of control: 100%
[10]; at 10 µM
  % of control: 90%
[11]; at 1 µM
  % of control: 100%
[11]; at 10 µM
  % of control: 98%
[12]; at 1 µM
  % of control: 4.6%
[12]; at 10 µM
  % of control: 100%

## N#Cc1cccc(-c2c[nH]c3ncnc(N4CCOCC4)c23)c1
[13]
  % of inhibition: 7%
[14]
  % of control: 41%
[15]
  % of control: 100%

## Cc1ccc(-c2ccc3c(ccc4sc5c(c43)NC[C@@H](C)NC5=O)n2)cn1
[16]
  % of inhibition: 14%

## CNC(=O)Nc1ccc(-c2nc(N3CC4CCC(C3)O4)c3cnn(C4CCC5(CC4)OCCO5)c3n2)cc1
[17]
  % of control: 79%
[18]
  % of control: 84%
